Experimental data: patent US7063946B2, “Methods, reagents, kits and apparatus for protein function analysis” (Meso Scale Technologies, LLC., priority 2001, dated 2006)

Columns and labels:
[1] = target: T1, EphB4 (Mus musculus, UniProt P54761); assay: Kinase inhibitor profiling, autophosphorylation; format: biochemical
T1 construct: specificity data for proteins generated from a library of eighteen full-length clones; host or cells: rabbit reticulocyte lysate, TnT coupled in vitro transcription/translation (cell-free)
T1 sequence (P54761 16-987): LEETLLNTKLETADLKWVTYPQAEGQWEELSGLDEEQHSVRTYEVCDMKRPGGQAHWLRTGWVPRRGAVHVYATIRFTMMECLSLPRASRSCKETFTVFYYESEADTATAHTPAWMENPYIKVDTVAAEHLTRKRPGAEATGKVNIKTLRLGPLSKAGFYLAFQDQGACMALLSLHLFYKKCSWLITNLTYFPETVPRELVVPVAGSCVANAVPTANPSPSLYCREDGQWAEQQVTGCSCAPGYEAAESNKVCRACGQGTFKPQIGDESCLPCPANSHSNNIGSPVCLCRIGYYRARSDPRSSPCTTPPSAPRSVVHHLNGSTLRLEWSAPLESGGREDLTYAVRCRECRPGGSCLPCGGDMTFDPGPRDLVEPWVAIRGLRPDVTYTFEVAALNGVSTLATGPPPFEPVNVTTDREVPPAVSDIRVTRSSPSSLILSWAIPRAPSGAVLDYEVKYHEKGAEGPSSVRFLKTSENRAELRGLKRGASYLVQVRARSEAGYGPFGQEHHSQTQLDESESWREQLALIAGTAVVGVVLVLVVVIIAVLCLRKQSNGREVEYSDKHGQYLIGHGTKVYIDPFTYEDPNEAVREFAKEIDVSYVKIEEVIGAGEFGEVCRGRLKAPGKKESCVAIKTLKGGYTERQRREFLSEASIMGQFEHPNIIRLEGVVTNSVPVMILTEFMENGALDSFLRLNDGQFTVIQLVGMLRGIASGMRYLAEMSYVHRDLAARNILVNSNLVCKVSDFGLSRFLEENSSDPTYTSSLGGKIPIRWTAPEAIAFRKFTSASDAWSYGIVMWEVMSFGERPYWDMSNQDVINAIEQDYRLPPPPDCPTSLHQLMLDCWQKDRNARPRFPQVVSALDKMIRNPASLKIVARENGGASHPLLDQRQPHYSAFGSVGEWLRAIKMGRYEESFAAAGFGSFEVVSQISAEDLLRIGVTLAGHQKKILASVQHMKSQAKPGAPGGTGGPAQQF
Protocol: (§1) Proteins were produced from DNA plasmids of Mock Luciferase, Promega, tyrosine kinase clone Spleen Tyrosine kinase (SYK, IMAGE ID# 3870426) and Eph receptor-A7 (EphA7, IMAGE ID# 3991628) (Incyte Genomics, CA) and immobilized on streptavidin or avidin coated NPT-IPR plates as described in the Example 7. To promote autophosphorylation in these immobilized and purified proteins, Mn++ ions were added in a 50 μl reaction containing 5 mM MgCl2, 5 mM MnCl2, 100 μM ATP, 25 mM Tris-HCl buffer pH 7.4, 0.05 mM Na3VO4, 0.004% TritonX-100, 2 mM DTT and EDTA-free protease inhibitor (Roche Molecular Biochemicals). This mixture was incubated with shaking at room temperature overnight to allow autophosphorylation. Following this incubation, wells were washed 2 times with TT-buffer and 2 times with water. Following this step, 50 ng Sulfo-TAG labeled anti-phosphotyrosine in buffer containing 25 mM Tris-HCl buffer pH 7.4, 5 mM MgCl2, 0.05 mM Na3VO4, 0.004% TritonX-100, 2 mM DTT and 0.05% IgG in a final volume of 50 μl was added followed by incubation at room temperature for 45 min. The unbound reagents were removed by one time washing with water, and the TAG label was detected in presence of 150 μl IPR assay buffer (0.4 mM Gly—Gly buffer, pH 7.8, 1 mM EDTA, 0.1 M TPA). The ECL signals were measured using an imaging plate reader.
(§2) Proteins were produced using 100 ng of plasmid DNA Mock (Luciferase, Promega) or tyrosine kinases (Fert2 IMAGE ID # 4485050, FGFR1 IMAGE ID # 4037899, Fgfr2 IMAGE ID # 2654352, Src IMAGE ID # 3156400, BMX IMAGE ID # 3919253, LCK IMAGE ID # 4191610, Epha7 IMAGE ID # 3991628, Ephb4 IMAGE ID # 4013934, Tek IMAGE ID # 3482498, HCK IMAGE ID # 4778819, BTK IMAGE ID # 4478463, CSK IMAGE ID # 4398416, SYK IMAGE ID # 3870426, FGR IMAGE ID # 4419973, PTK2B IMAGE ID # 4339456, FRK(IMAGE ID # 4515877, Kit IMAGE ID # 2644960, Fgfr-4 IMAGE ID # 4239139, NTRK3 IMAGE ID # 4181574, Kdr IMAGE ID # 4238984, Incyte Genomics, CA) and immobilized on SA or avidin coated NPT-IPR plates as described in previous examples. The unbound components of the translation reaction (including any endogenous kinases) were removed by 3 washes with TT-buffer (25 mM Tris-HCl buffer pH 7.4 and 0.004% Triton), two five minutes washes with high-salt wash buffer (25 mM Tris-HCl buffer pH 7.4, 0.004% Triton, 1M NaCl and 5 mM DTT) and 3 washes with TT-buffer. […] The mixture was incubated at room temperature for 10 mm before starting the kinase reaction by adding 25 μl of 200 μM ATP in buffer A. This mixture was incubated with intermittent shaking at room temperature for 2 hours to overnight to allow (a) phosphorylation of the pEY substrate and (b) autophosphorylation of the immobilized kinases. Autophosphorylation and phosphorylation of the pEY was measured as described in Examples 7 and 8.
(§3) The ECL signal in control wells produced by tyrosine kinases was compared to the wells containing inhibitor compounds. The signal produced from Mock was negligible.

[2] = system: FRK; assay: Kinase inhibitor profiling, autophosphorylation; format: biochemical
Protocol: as §1, §2, §3

[3] = target: T2, Fgfr4 (Mus musculus, UniProt Q03142); assay: Kinase inhibitor profiling, autophosphorylation; format: biochemical
T2 construct: specificity data for proteins generated from a library of eighteen full-length clones; biotin on random lysines (biotin-Lys-tRNA); host or cells: rabbit reticulocyte lysate, coupled transcription/translation (TnT, Promega)
T2 sequence (Q03142 17-799): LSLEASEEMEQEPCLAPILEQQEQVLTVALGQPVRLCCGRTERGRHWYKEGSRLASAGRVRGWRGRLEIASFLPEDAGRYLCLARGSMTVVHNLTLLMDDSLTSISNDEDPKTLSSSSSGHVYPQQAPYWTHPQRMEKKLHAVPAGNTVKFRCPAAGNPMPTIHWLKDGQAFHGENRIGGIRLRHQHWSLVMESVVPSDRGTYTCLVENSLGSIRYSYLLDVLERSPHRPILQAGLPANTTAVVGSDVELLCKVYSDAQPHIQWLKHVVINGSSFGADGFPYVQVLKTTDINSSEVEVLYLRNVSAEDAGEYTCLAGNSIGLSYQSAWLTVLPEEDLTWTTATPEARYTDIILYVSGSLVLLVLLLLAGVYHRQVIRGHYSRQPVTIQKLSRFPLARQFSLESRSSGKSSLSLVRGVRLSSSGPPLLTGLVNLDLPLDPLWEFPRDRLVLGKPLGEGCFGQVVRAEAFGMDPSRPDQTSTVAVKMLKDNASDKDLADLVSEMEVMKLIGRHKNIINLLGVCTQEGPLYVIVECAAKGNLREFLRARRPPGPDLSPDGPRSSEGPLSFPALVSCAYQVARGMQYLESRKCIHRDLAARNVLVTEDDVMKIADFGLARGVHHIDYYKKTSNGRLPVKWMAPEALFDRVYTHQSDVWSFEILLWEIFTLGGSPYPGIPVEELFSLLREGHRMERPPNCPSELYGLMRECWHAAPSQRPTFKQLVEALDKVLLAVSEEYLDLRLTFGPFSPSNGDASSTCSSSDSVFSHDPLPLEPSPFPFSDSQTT
Protocol: as §1, §2, §3

[4] = target: T3, Kit (Mus musculus, UniProt P05532); assay: Kinase inhibitor profiling, autophosphorylation; format: biochemical
T3 construct: specificity data for proteins generated from a library of eighteen full-length clones; biotin on random lysines (biotin-Lys-tRNA); host or cells: rabbit reticulocyte lysate, coupled transcription/translation (TnT, Promega)
T3 sequence (P05532 25-979): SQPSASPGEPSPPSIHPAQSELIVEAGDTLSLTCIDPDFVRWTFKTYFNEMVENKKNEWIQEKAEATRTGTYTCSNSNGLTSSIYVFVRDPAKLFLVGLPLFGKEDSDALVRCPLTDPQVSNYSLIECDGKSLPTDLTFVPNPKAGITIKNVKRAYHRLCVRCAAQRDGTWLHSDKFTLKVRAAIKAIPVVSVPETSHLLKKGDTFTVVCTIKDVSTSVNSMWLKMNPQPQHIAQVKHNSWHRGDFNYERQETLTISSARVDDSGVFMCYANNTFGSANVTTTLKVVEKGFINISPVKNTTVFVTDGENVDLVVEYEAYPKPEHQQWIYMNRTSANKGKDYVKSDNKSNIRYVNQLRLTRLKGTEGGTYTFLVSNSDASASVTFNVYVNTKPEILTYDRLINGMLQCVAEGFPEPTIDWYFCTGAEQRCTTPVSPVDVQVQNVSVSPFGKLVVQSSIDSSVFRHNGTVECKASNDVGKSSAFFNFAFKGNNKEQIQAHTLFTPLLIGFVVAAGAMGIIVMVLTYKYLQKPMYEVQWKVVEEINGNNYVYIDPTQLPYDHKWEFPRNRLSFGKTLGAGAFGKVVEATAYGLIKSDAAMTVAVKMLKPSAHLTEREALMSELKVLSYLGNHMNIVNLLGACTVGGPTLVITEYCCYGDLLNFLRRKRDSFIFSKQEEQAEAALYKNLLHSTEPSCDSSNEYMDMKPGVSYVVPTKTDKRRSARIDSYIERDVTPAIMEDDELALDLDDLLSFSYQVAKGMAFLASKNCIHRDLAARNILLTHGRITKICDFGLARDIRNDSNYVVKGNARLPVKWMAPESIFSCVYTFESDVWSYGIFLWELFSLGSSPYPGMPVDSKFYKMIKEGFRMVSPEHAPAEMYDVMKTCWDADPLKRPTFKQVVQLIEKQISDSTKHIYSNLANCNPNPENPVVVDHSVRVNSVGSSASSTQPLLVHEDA
Protocol: as §1, §2, §3

[5] = target: T4, SRC (Mus musculus, UniProt P05480); assay: Kinase inhibitor profiling, autophosphorylation; format: biochemical
T4 construct: specificity data for proteins generated from a library of eighteen full-length clones; host or cells: rabbit reticulocyte lysate, TnT coupled transcription/translation
Protocol: as §1, §2, §3

[6] = system: tyrosine kinases reported to be the target of each inhibitor; details: read-out: reported IC50 concentration (1× concentration); for the kinase reported to be the target of the inhibitor; cited from earlier work

Row | Compound | Inhibition specificity towards Autophosphorylation at 10X IC50, Ephb4 [1] | Inhibition specificity towards Autophosphorylation at 10X IC50, FRK [2] | Inhibition specificity towards Autophosphorylation at 10X IC50, Fgfr4 [3] | Inhibition specificity towards Autophosphorylation at 10X IC50, Kit [4] | Inhibition specificity towards Autophosphorylation at 10X IC50, Src [5] | IC50 [6] [µM]
1 | COC(=O)c1ccc(NCc2cc(O)ccc2O)cc1 [AG-957] | L (low inhibition (“L”=between 50–75% of the activity remaining)) | L (low inhibition (“L”=between 50–75% of the activity remaining)) | L (low inhibition (“L”=between 50–75% of the activity remaining)) | L (low inhibition (“L”=between 50–75% of the activity remaining)) | L (low inhibition (“L”=between 50–75% of the activity remaining)) | 0.75
2 | CC(C)(C)c1cc(C=C(C#N)C#N)cc(Br)c1O [AG-1024] | – | – | L (low inhibition (“L”=between 50–75% of the activity remaining)) | – | – | 18
3 | Cc1cc2ncc(-c3ccc(O)c(O)c3)nc2cc1C [AG-1433] | H (high inhibition (“H”=less than 25% of the activity remaining)) | H (high inhibition (“H”=less than 25% of the activity remaining)) | H (high inhibition (“H”=less than 25% of the activity remaining)) | H (high inhibition (“H”=less than 25% of the activity remaining)) | H (high inhibition (“H”=less than 25% of the activity remaining)) | 5
4 | COc1c(C=O)c(O)cc2c1C(=O)c1ccccc1C2=O [Damnacanthal] | H (high inhibition (“H”=less than 25% of the activity remaining)) | H (high inhibition (“H”=less than 25% of the activity remaining)) | H (high inhibition (“H”=less than 25% of the activity remaining)) | H (high inhibition (“H”=less than 25% of the activity remaining)) | H (high inhibition (“H”=less than 25% of the activity remaining)) | 0.62
5 | Cc1ccc(-c2nn(C(C)(C)C)c3ncnc(N)c23)cc1 [PP1] | – | – | – | – | L (low inhibition (“L”=between 50–75% of the activity remaining)) | 0.6
6 | COc1cc2ncnc(Nc3ccc(Cl)cc3F)c2cc1OC [VEGFR inhibitor] | L (low inhibition (“L”=between 50–75% of the activity remaining)) | – | – | – | – | 2
7 | COc1cc2ncnc(Nc3ccc(O)cc3)c2cc1OC [WHI-P131] | – | – | – | L (low inhibition (“L”=between 50–75% of the activity remaining)) | – | 7.8
8 | Erbstatin analog | L (low inhibition (“L”=between 50–75% of the activity remaining)) | – | – | L (low inhibition (“L”=between 50–75% of the activity remaining)) | L (low inhibition (“L”=between 50–75% of the activity remaining)) | 0.78
